Results reported in US8145430B2, “Predictive scoring function for estimating binding affinity” (Schrodinger, LLC, priority 2005, dated 2012).
Where two headings read alike, the source gives them in different places.

Legend:
[1] = tested on: protein-ligand complexes in the PDB; conditions: experimental binding affinity, cited from earlier work
Glur2 receptors = conditions: series of Glur2 receptors; cited from earlier work
Streptavidin = Streptavidin (Streptomyces avidinii, UniProt P22629); experiment: Calculated versus experimental binding affinity, streptavidin and biotin (pdb 1stp), docked structure; conditions: using a docked structure
Streptavidin, sequence (P22629 25-183): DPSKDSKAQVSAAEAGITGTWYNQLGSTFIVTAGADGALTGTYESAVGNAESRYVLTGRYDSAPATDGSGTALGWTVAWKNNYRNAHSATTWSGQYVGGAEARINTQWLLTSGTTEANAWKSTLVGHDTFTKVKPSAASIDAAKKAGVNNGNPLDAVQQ
From the text: FIG. 8 illustrates Streptavidin in biotin (pdb 1stp). Both special hydrogen bonds in this complex, and hydrophobic enclosure of the hydrogen bonding region, are shown.
Here three correlated hydrogen bonds occur in a hydrophobically enclosed region. Up to the present time, no empirical scoring function has explained the exceptionally large binding affinity of streptavidin in biotin. Once the triple, enclosed hydrogen bonding motif is recognized and assigned an appropriate score, the deviation between calculated and experimental binding affinity, using a docked structure, is only 1.5 kcal/mole.

aldose reductase = aldose reductase (Homo sapiens, UniProt P15121); conditions: lef3 structure of aldose reductase; cited from earlier work
[2] = column beside SP Score (repeat)

| SMILES | ΔG_exp [1, 2] | ΔG_exp ([1]; column beside XP Score) | ΔG (experimental binding energies) (Glur2 receptors) | deviation between calculated and experimental binding affinity (Streptavidin) | binding affinity experimentally (aldose reductase) |
| --- | --- | --- | --- | --- | --- |
| Nc1c2c(nc3ccccc13)CCCC2 [1acj] | -10 kcal/mol | -10 kcal/mol | – | – | – |
| CNC(=O)C(F)(F)C(O)(O)[C@H](CC(C)C)NC(=O)[C@@H](NC(=O)[C@@H](NC(=O)CC(C)C)C(C)C)C(C)C [1apv] | -11.3 kcal/mol | -11.3 kcal/mol | – | – | – |
| N=C(N)c1ccccc1 [1bra] | -2.5 kcal/mol | -2.5 kcal/mol | – | – | – |
| CC(C)c1ccc(NC(=O)[C@H](Cc2ccccc2)NC(=O)[C@H](CCCCN)NC(=O)C(F)(F)F)cc1 [1elc] | -9.8 kcal/mol | -9.8 kcal/mol | – | – | – |
| CC(=O)N[C@H](C(=O)N[C@@H](Cc1ccccc1)[C@@H](O)CN(CC1CCCCC1)NC(=O)[C@@H](NC(C)=O)C(C)C)C(C)C [1hih] | -11.3 kcal/mol | -11.3 kcal/mol | – | – | – |
| CC1(C)S[C@H]([C@H](NC(=O)Cc2ccccc2)C(=O)NCc2ccccc2)N[C@H]1C(=O)N[C@@H](CO)Cc1ccccc1 [1htf] | -11.1 kcal/mol | -11.1 kcal/mol | – | – | – |
| CC(=O)N[C@H]1[C@H]([C@H](O)[C@H](O)CO)OC(C(=O)O)=C[C@@H]1O [1nnb] | -7.2 kcal/mol | -7.2 kcal/mol | – | – | – |
| O=C(O)[C@H](O)[C@@H](O)[C@H](O)[C@H](O)COP(=O)(O)O [1pgp] | -7.8 kcal/mol | -7.8 kcal/mol | – | – | – |
| Cc1ccc(S(=O)(=O)N[C@@H](Cc2cccc(C(=N)N)c2)C(=O)N2CCCCC2)cc1 [1pph] | -8.5 kcal/mol | -8.5 kcal/mol | – | – | – |
| COC(=O)[C@H](Cc1ccccc1)OP(=O)(O)[C@H](CC(C)C)NC(=O)[C@@H](NC(=O)[C@@H](NC(=O)CC(C)C)C(C)C)C(C)C [1ppl] | -11.5 kcal/mol | -11.5 kcal/mol | – | – | – |
| CC(C)C[C@H](N[C@@H](CCc1ccccc1)C(=O)O)C(=O)N[C@@H](Cc1c[nH]c2ccccc12)C(=O)O [1tmn] | -10 kcal/mol | -10 kcal/mol | – | – | – |
| NCC1CCCCC1 [1tng] | -4 kcal/mol | -4 kcal/mol | – | – | – |
| NCCCCc1ccccc1 [1tni] | -2.3 kcal/mol | -2.3 kcal/mol | – | – | – |
| CC12CCC(CC1=O)C2(C)C (centres unmarked) [2cpp] | -8.3 kcal/mol | -8.3 kcal/mol | – | – | – |
| O=C(O)[C@@H](O)Cc1ccccc1 [2ctc] | -5.3 kcal/mol | -5.3 kcal/mol | – | – | – |
| CN(Cc1cnc2nc(N)nc(N)c2n1)c1ccc(C(=O)N[C@@H](CCC(=O)O)C(=O)O)cc1 [4dfr] | -13.2 kcal/mol | -13.2 kcal/mol | – | – | – |
| O=C(N[C@H]1c2ccccc2C[C@H]1O)[C@H](Cc1ccccc1)CC(O)C[C@@H](Cc1ccccc1)C(=O)N[C@H]1c2ccccc2C[C@H]1O [4phv] | -12.5 kcal/mol | -12.5 kcal/mol | – | – | – |
| CC(C)C[C@H](N)C(=O)NO [4tln] | -5.1 kcal/mol | -5.1 kcal/mol | – | – | – |
| C[C@H]1O[C@H](O)[C@H](O)[C@@H](O)[C@H]1O [7abp] | -8.1 kcal/mol | -8.1 kcal/mol | – | – | – |
| N[C@@H](CCC(=O)O)C(=O)O [Ligand 1ftj] | – | – | 8.5 kcal/mol | – | – |
| O=c1[nH]c2cc([N+](=O)[O-])c([N+](=O)[O-])cc2[nH]c1=O [Ligand 1ftl] | – | – | 8.3 kcal/mol | – | – |
| Cc1o[nH]c(=O)c1C[C@H](N)C(=O)O [Ligand 1ftm] | – | – | 8.8 kcal/mol | – | – |
| N[C@@H](Cn1cc(F)c(=O)[nH]c1=O)C(=O)O [Ligand 1mqi] | – | – | 11.9 kcal/mol | – | – |
| O=C(O)CCCC[C@@H]1SC[C@@H]2NC(=O)N[C@@H]21 [biotin] | – | – | – | 1.5 kcal/mol | – |
| NC(=O)[C@@H]1C[C@]2(NC(=O)NC2=O)c2cc(F)ccc2O1 [fiderestat] | – | – | – | – | low nanomolar |
